Test results reported in patent publication US11781160B2, “Methods for the production of methacrylates” (priority 2018, dated 2023).

Assays:
[1] = tested on: E. coli BW25113 isolate 2-rob(R156H) rpoC(L361R) ilvN(C41Y) ygbK(A294E) IpxM(168_185del); assay: Growth kinetics of isolated strain 2 with 20% v/v BMA
[2] = tested on: gene transcription in strain 23; assay: Transcriptome analysis with added BMA, strain 23
Description: (§1) Transcriptome analysis was carried out to characterize transcriptional activity in mutant microorganisms using standard methods.
(§2) Sample Preparation • 1) Streak strains onto fresh MSX agar (15 g/L) plates directly from the cryostocks and incubate overnight at 37° C. • 2) Isolate single colonies and inoculate pre-cultures in MSX, using 50 ml shake flasks. Incubate overnight at 37° C. and 250 rpm. • 3) Inoculate cultures in MSX to an initial OD600 of 0.05, using 250 mL pyrex shake flasks with 24/29 neck join. Incubate at 37° C. and 250 rpm. Do 4 biological replicates (3 replicates for sequencing plus one backup)—4 flasks per strain. • 4) Seal shake flasks with sterile Suba seals. To monitor OD, take samples using a sterile syringe and needle after first swabbing the Suba seals with 70% ethanol. Monitor OD. • 5) When OD reaches 0.3, collect first sample for RNA extraction (“before” sample) into a pre-chilled falcon. Keep samples on ice. • 6) Immediately after, add 20% (v/v) BMA. Re-incubate cultures. • 7) Quickly process the samples according to the RNeasy kit protocol, until step 6 of protocol 1. Always keep samples on ice and store it at −80° C. until further use, if possible, flash freeze in liquid nitrogen it before storing. • 8) One hour after the first sample collection/BMA addition, collect the second sample for RNA extraction (“after” sample). Proceed as explained before. • 9) Continue to monitor the OD until the cultures reach 24 h. • To summarise, each strain tested will have 6 samples to send for sequencing, 3 collected right before the addition and 3 collected one hour after, plus 1 “back-up” for before and after, in case something goes wrong during extraction (8 samples total). Besides the WT strain with the addition of BMA, samples were also collected from a WT culture with no BMA, one hour after reaching OD of 0.3, as a control.
(§3) Transcription was compared for a double mutant and the wild-type in the presence and absence of BMA relative to the level in the wild type in the absence of BMA. For the avoidance of doubt the level in the table is the ratio of the level in the strain under the BMA exposure relative to the level in the wild type in the absence of added BMA.

[3] = tested on: E. coli BW25113 isolate 3-rob(R156H) ilvN(C41Y) phoP(L11F) acrB(V448L) acrR(indels); assay: Growth kinetics of isolated strain 3 with 20% v/v BMA
[4] = tested on: E. coli BW25113 isolate 8-rob(R156H) rpoB(T1037P) torY(A87T) acrR(49Yfs); assay: Growth kinetics of isolated strain 8 with 20% v/v BMA
[5] = tested on: E. coli MG1655 soxR(R20H); assay: Growth in MSX medium with 20% (v/v) BMA, single mutant; format: cell-based, Escherichia coli; details: 20% (v/v) BMA added immediately after inoculation
[6] = tested on: E. coli BW25113 isolate 20-marR(V84G) rpoC(R1075C) ompR(R15S) acrR(indels); assay: Growth kinetics of isolated strain 20 with 20% v/v BMA
[7] = tested on: gene transcription in double mutant; assay: Transcriptome analysis with added BMA, double mutant
Description: as §1, §2, §3

E. coli BW25113 ΔsoxR = assay: Growth in MSX medium with 20% (v/v) BMA, knock-out strain; format: cell-based, Escherichia coli; details: 20% (v/v) BMA added immediately after inoculation
[8] = tested on: E. coli MG1655 acrR(V29G); assay: Growth in MSX medium with 20% (v/v) BMA, single mutation strain; format: cell-based, Escherichia coli; details: 20% (v/v) BMA added immediately after inoculation
[9] = tested on: gene transcription in strain 21; assay: Transcriptome analysis with added BMA, strain 21
Description: as §1, §2, §3

[10] = tested on: E. coli MG1655 soxR(R20H)acrR(T32fs); assay: Growth in MSX medium with 20% (v/v) BMA, double mutant; format: cell-based, Escherichia coli
[11] = 20% (v/v) BMA added immediately after inoculation

SMILES: C=C(C)C(=O)OCCCC [BMA, butyl 2-methylprop-2-enoate]
- Growth rate [1]: 0.532 ± 0.028 h⁻¹
- Lag time [1]: 6 h
- Max cell concentration [1]: 0.651 ± 0.052 g/L
- IdhA transcription level relative to wild type without BMA [2]: 28.20
- acrA transcription level relative to wild type without BMA [2]: 6.50
- acrB transcription level relative to wild type without BMA [2]: 7.66
- adiY transcription level relative to wild type without BMA [2]: 6.73
- ariR transcription level relative to wild type without BMA [2]: 14.82
- asr transcription level relative to wild type without BMA [2]: 123.20
- bssR transcription level relative to wild type without BMA [2]: 71.61
- ibpA transcription level relative to wild type without BMA [2]: 31.35
- ibpB transcription level relative to wild type without BMA [2]: 41.67
- narG transcription level relative to wild type without BMA [2]: 42.52
- nirB transcription level relative to wild type without BMA [2]: 25.46
- nirD transcription level relative to wild type without BMA [2]: 25.17
- pspA transcription level relative to wild type without BMA [2]: 32.81
- pspB transcription level relative to wild type without BMA [2]: 27.16
- pspD transcription level relative to wild type without BMA [2]: 28.18
- pspc transcription level relative to wild type without BMA [2]: 28.45
- raiA transcription level relative to wild type without BMA [2]: 31.13
- rmf transcription level relative to wild type without BMA [2]: 8.80
- soxS transcription level relative to wild type without BMA [2]: 30.40
- spy transcription level relative to wild type without BMA [2]: 4.79
- ybfA transcription level relative to wild type without BMA [2]: 29.99
- ybhG transcription level relative to wild type without BMA [2]: 20.82
- ybiH transcription level relative to wild type without BMA [2]: 16.75
- ydgU transcription level relative to wild type without BMA [2]: 50.45
- yhjx transcription level relative to wild type without BMA [2]: 596.44
- yibT transcription level relative to wild type without BMA [2]: 42.63
- ymgA transcription level relative to wild type without BMA [2]: 8.84
- ymgC transcription level relative to wild type without BMA [2]: 7.42
- ynfM transcription level relative to wild type without BMA [2]: 41.92
- yohk transcription level relative to wild type without BMA [2]: 10.04
- Growth rate [3]: 0.566 ± 0.010 h⁻¹
- Lag time [3]: 4 h
- Max cell concentration [3]: 0.790 ± 0.076 g/L
- Growth rate [4]: 0.712 ± 0.015 h⁻¹
- Lag time [4]: 5 h
- Max cell concentration [4]: 0.435 ± 0.010 g/L
- Growth in the presence of BMA [5]: able to grow
- Growth rate [6]: 0.719 ± 0.041 h⁻¹
- Lag time [6]: 5 h
- Max cell concentration [6]: 0.589 ± 0.012 g/L
- acrA transcription level relative to wild type without BMA ([7]; LM double mutant): 5.13
- acrB transcription level relative to wild type without BMA ([7]; LM double mutant): 4.99
- IdhA transcription level relative to wild type without BMA ([7]; double mutant): 30.42
- adiY transcription level relative to wild type without BMA ([7]; double mutant): 10.80
- ariR transcription level relative to wild type without BMA ([7]; double mutant): 8.91
- asr transcription level relative to wild type without BMA ([7]; double mutant): 711.06
- bssR transcription level relative to wild type without BMA ([7]; double mutant): 5.47
- ibpA transcription level relative to wild type without BMA ([7]; double mutant): 80.35
- ibpB transcription level relative to wild type without BMA ([7]; double mutant): 672.54
- narG transcription level relative to wild type without BMA ([7]; double mutant): 3.23
- nirB transcription level relative to wild type without BMA ([7]; double mutant): 3.28
- nirD transcription level relative to wild type without BMA ([7]; double mutant): 3.57
- pspA transcription level relative to wild type without BMA ([7]; double mutant): 27.60
- pspB transcription level relative to wild type without BMA ([7]; double mutant): 11.73
- pspD transcription level relative to wild type without BMA ([7]; double mutant): 10.00
- pspc transcription level relative to wild type without BMA ([7]; double mutant): 11.09
- raiA transcription level relative to wild type without BMA ([7]; double mutant): 36.36
- rmf transcription level relative to wild type without BMA ([7]; double mutant): 17.63
- soxS transcription level relative to wild type without BMA ([7]; double mutant): 20.93
- spy transcription level relative to wild type without BMA ([7]; double mutant): 99.47
- ybfA transcription level relative to wild type without BMA ([7]; double mutant): 59.92
- ybhG transcription level relative to wild type without BMA ([7]; double mutant): 10.78
- ybiH transcription level relative to wild type without BMA ([7]; double mutant): 7.73
- ydgU transcription level relative to wild type without BMA ([7]; double mutant): 188.87
- yhjx transcription level relative to wild type without BMA ([7]; double mutant): 2.32
- yibT transcription level relative to wild type without BMA ([7]; double mutant): 43.57
- ymgA transcription level relative to wild type without BMA ([7]; double mutant): 9.97
- ymgC transcription level relative to wild type without BMA ([7]; double mutant): 11.68
- ynfM transcription level relative to wild type without BMA ([7]; double mutant): 29.92
- yohk transcription level relative to wild type without BMA ([7]; double mutant): 19.51
- Growth in the presence of BMA (E. coli BW25113 ΔsoxR): unable to grow
- Growth in the presence of BMA [8]: able to grow
- IdhA transcription level relative to wild type without BMA [9]: 20.48
- acrA transcription level relative to wild type without BMA [9]: 5.63
- acrB transcription level relative to wild type without BMA [9]: 8.93
- adiY transcription level relative to wild type without BMA [9]: 10.74
- ariR transcription level relative to wild type without BMA [9]: 6.13
- asr transcription level relative to wild type without BMA [9]: 11.63
- bssR transcription level relative to wild type without BMA [9]: 198.48
- ibpA transcription level relative to wild type without BMA [9]: 29.21
- ibpB transcription level relative to wild type without BMA [9]: 30.97
- narG transcription level relative to wild type without BMA [9]: 65.34
- nirB transcription level relative to wild type without BMA [9]: 39.43
- nirD transcription level relative to wild type without BMA [9]: 42.50
- pspA transcription level relative to wild type without BMA [9]: 21.16
- pspB transcription level relative to wild type without BMA [9]: 14.98
- pspD transcription level relative to wild type without BMA [9]: 14.80
- pspc transcription level relative to wild type without BMA [9]: 14.67
- raiA transcription level relative to wild type without BMA [9]: 22.55
- rmf transcription level relative to wild type without BMA [9]: 36.77
- soxS transcription level relative to wild type without BMA [9]: 1.08
- spy transcription level relative to wild type without BMA [9]: 1.77
- ybfA transcription level relative to wild type without BMA [9]: 33.06
- ybhG transcription level relative to wild type without BMA [9]: 9.26
- ybiH transcription level relative to wild type without BMA [9]: 7.20
- ydgU transcription level relative to wild type without BMA [9]: 6.39
- yhjx transcription level relative to wild type without BMA [9]: 3.11
- yibT transcription level relative to wild type without BMA [9]: 95.47
- ymgA transcription level relative to wild type without BMA [9]: 2.43
- ymgC transcription level relative to wild type without BMA [9]: 1.53
- ynfM transcription level relative to wild type without BMA [9]: 65.39
- yohk transcription level relative to wild type without BMA [9]: 7.09
- Tolerance to BMA ([10]; 20% (v/v) BMA added during mid-exponential phase): enhanced tolerance to BMA compared to the soxR(R20H) mutation alone
- Growth compared with the single mutant with the soxR mutation [10, 11]: able to grow better than the single mutant
- Growth in the presence of BMA [10, 11]: able to grow
